We go through 27 molecules from patent publication US20250320189A1, “NEW DERIVATIVES FOR TREATING TRPM3 MEDIATED DISORDERS” (Katholieke Universiteit Leuven, priority 2022, published 2025).

Test [1] has as its system rat pain model. Particulars: cited from earlier work.
Test [2] concerns the target T1, mouse TRPM3α2 (mTRPM3) ion channel (Mus musculus, UniProt J9SQF3).
T1 construct: expressed in transfected cells; host or cells: flip-in (Flp-In) HEK293
The test can be described thus: Monitoring the TRPM3 ion channel driven Ca2+ uptake (Fluo-4 AM assay). It counts as cell-based. The note with it: mTRPM3alpha2 overexpressing flip-in HEK293 cells, stimulated with Pregnenolone sulfate (PS) 50 μM. The method, boiled down:
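Flp-In HEK293 cells overexpressing mTRPM3α2 were loaded with Fluo-4 AM and added to plates holding compound plus 50 μM pregnenolone sulfate in Ca²⁺-containing Krebs buffer. Fluorescence (ex 485/em 535) was read right after cell addition. Inhibition was calculated against vehicle-stimulated and positive-control-inhibitor wells, with IC50 derived from it.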

Test [3] deals with TRPM3 (Homo sapiens, UniProt Q9HCF6). Particulars: cited from earlier work.
The test system of test [4] is wild type mice / knock-out TRPM3 mice. The note with it: wild type mice vs knock-out TRPM3 mice; cited from earlier work.

T1 sequence (J9SQF3 1-1709 isoform J9SQF3-12): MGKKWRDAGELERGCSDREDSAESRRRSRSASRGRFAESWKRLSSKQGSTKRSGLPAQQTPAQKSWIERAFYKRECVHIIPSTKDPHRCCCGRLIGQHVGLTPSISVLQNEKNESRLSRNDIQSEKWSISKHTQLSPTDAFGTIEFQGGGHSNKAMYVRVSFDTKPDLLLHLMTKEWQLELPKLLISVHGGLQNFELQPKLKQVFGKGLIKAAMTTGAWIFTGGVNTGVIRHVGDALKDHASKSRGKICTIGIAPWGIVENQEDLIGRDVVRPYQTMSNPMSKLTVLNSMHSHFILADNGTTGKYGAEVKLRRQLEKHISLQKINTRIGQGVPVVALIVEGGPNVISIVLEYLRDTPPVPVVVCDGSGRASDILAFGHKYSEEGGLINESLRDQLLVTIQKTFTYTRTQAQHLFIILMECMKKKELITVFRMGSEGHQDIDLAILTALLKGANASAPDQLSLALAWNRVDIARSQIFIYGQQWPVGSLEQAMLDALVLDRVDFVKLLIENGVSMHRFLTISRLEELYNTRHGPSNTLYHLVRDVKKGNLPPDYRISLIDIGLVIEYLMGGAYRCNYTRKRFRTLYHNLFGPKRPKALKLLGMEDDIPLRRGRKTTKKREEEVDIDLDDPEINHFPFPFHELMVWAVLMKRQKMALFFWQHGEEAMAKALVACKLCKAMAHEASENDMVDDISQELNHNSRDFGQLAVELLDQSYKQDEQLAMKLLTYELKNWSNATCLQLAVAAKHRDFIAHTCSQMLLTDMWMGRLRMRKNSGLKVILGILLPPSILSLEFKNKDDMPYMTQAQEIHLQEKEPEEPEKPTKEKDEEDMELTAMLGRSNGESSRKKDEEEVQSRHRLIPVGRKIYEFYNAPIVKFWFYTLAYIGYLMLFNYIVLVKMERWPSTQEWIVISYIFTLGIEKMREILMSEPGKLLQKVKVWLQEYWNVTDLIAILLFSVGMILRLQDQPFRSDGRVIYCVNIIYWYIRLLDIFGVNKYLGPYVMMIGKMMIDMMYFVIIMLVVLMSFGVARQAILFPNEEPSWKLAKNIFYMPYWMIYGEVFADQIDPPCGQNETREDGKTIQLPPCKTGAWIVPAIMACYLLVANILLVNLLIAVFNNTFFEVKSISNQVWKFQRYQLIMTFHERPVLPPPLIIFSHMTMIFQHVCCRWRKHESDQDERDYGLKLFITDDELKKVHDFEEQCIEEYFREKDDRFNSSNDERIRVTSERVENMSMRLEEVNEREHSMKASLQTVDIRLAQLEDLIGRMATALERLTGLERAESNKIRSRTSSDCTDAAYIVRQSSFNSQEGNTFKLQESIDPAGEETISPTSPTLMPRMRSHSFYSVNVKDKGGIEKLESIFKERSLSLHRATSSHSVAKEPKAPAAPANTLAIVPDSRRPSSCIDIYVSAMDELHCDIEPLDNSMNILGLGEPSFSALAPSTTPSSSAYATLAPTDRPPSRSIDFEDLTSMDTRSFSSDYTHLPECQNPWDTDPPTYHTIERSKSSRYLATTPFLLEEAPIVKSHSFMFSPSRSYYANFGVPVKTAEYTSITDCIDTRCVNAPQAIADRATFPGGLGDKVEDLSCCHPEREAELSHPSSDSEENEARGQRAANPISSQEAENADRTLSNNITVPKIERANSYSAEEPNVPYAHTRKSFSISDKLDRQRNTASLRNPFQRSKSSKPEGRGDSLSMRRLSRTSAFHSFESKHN
TRPM3, sequence (Q9HCF6 whole entry, species assumed): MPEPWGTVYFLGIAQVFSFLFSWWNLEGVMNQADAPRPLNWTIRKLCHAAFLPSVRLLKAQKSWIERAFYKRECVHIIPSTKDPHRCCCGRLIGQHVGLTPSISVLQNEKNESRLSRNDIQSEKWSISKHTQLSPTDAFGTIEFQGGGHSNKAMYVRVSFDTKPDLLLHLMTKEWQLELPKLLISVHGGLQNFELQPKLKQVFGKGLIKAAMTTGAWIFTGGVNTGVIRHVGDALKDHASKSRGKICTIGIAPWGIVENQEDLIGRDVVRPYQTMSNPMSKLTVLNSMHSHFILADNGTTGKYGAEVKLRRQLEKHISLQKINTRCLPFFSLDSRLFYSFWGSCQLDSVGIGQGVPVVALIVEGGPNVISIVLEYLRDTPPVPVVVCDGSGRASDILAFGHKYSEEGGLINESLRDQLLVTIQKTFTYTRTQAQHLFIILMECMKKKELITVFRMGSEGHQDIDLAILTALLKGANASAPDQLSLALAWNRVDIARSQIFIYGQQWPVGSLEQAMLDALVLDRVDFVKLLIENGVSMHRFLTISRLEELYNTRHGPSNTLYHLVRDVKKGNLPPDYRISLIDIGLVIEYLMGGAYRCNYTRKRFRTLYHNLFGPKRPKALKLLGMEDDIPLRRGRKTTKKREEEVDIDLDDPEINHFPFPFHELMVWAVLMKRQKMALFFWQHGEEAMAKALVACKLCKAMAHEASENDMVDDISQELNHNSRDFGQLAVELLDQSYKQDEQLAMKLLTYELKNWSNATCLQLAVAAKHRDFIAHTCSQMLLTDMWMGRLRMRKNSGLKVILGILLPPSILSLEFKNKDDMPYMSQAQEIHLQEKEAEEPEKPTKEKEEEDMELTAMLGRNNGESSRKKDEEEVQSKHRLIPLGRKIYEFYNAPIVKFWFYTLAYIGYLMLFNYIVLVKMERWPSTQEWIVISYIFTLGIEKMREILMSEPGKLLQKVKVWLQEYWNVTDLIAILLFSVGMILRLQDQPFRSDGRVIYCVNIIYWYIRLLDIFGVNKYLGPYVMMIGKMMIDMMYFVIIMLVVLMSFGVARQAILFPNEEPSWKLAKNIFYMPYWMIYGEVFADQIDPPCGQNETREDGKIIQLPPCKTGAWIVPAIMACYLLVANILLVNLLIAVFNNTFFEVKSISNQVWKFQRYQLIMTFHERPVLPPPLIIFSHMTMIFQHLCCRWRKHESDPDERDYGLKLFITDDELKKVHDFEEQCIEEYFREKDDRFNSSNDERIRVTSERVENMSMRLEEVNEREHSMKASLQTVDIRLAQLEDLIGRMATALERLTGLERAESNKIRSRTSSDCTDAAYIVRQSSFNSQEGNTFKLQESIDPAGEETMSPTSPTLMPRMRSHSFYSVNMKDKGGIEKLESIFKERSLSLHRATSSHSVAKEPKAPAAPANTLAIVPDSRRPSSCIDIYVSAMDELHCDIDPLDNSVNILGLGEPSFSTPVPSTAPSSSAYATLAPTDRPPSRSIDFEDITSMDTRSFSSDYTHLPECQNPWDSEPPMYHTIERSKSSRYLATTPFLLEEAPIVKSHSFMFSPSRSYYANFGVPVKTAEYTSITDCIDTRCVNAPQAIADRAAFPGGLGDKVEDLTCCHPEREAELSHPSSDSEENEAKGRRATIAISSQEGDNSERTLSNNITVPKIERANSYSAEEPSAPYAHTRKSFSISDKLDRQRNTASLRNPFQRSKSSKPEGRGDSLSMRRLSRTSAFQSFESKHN

Regarding `O=C1C[C@@H](c2ccc(O)cc2)Oc2cc(O)ccc21` [Liquiritigenin], in test [1], the “mechanical and cold hyperalgesia” value was “decrease mechanical and cold hyperalgesia”. `Cc1oc2ccc(OCC3CC3)cc2c1C(=O)NC1CCCNC1=O` (single isomer, unassigned) [Cpd 055 - En2, 5-(cyclopropylmethoxy)-2-methyl-N-(2-oxopiperidin-3-yl)-1-benzofuran-3-carboxamide] showed an IC50 in test [2] of 1000 to 20000 nM.

Regarding `Cc1oc2ccc(OCC3CCCC3)cc2c1C(=O)NC(C)(CO)C(N)=O` (single isomer, unassigned) [Cpd 062 - En1, 2-{[5-(cyclopentylmethoxy)-2-methyl-1-benzofuran-3-yl]formamido}-3-hydroxy-2-methylpropanamide], the IC50 in test [2] was < 1000 nM. With `Cc1oc2ccc(OCC3CC3)cc2c1C(=O)NC(C)(CO)CO` [Cpd 023, 5-(cyclopropylmethoxy)-N-(1,3-dihydroxy-2-methylpropan-2-yl)-2-methyl-1-benzofuran-3-carboxamide], the 50% inhibitory concentration (IC50) in test [2] was < 1000 nM. The same measure, in the same setting: the value for `Cc1oc2ccc(OCC3CC3(F)F)cc2c1C(=O)NC1CCNCC1(F)F` (single isomer, unassigned) [Cpd 031 - En1, 5-[(2,2-difluorocyclopropyl)methoxy]-N-(3,3-difluoropiperidin-4-yl)-2-methyl-1-benzofuran-3-carboxamide] was 1000 to 20000 nM. Still for that read-out and setting: the value for `Cc1oc2ccc(OCC(F)F)cc2c1C(=O)NC(C)(CO)C(N)=O` (single isomer, unassigned) [Cpd 041 - En1, 2-{[5-(2,2-difluoroethoxy)-2-methyl-1-benzofuran-3-yl]formamido}-3-hydroxy-2-methylpropanamide] was < 1000 nM.

Turning to pregnenolone sulfate, the “activator of TRPM3” value in test [3] is recorded as “potent known activator”. For the same molecule, the evoked pain result in test [4] was “evoked pain in wild type mice but not in knock-out TRPM3 mice”.

Molecule `Cc1oc2ccc(OC[C@H]3C[C@@H](C)C3)cc2c1C(=O)NC(C)(CO)C(N)=O` (single isomer, unassigned) [Cpd 058 - En2, Cis-3-hydroxy-2-methyl-2-({2-methyl-5-[(3-methylcyclobutyl)methoxy]-1-benzofuran-3-yl}formamido)propenamide] gave a concentration for half-maximal inhibition (IC50) in test [2] of 1000 to 20000 nM. On the same count and under the same terms, under `Cc1oc2ccc(OCC3CC3)cc2c1C(=O)NC(C)(CO)C(N)=O` (single isomer, unassigned) [Cpd 017 - En1, 2-{[5-(cyclopropylmethoxy)-2-methyl-1-benzofuran-3-yl]formamido}-3-hydroxy-2-methylpropanamide] stands < 1000 nM; under `Cc1oc2ccc(OCC3CC3)cc2c1C(=O)NC1(CO)CCNC1=O` (single isomer, unassigned) [Cpd 028 - En2, 5-(cyclopropylmethoxy)-N-[3-(hydroxymethyl)-2-oxopyrrolidin-3-yl]-2-methyl-1-benzofuran-3-carboxamide], < 1000 nM; under `Cc1oc2ccc(OCC3CC3(F)F)cc2c1C(=O)NC1CCNCC1(F)F` (single isomer, unassigned) [Cpd 031 - En2, 5-[(2,2-difluorocyclopropyl)methoxy]-N-(3,3-difluoropiperidin-4-yl)-2-methyl-1-benzofuran-3-carboxamide], < 1000 nM. On the same count and under the same terms, the value for `Cc1oc2ccc(OC[C@@H]3C[C@@H]4C[C@@H]4C3)cc2c1C(=O)NC(C)(CO)C(N)=O` (single isomer, unassigned) [Cpd 050 - En2, Cis-2-{[5-({bicyclo[3.1.0]hexan-3-yl}methoxy)-2-methyl-1-benzofuran-3-yl]formamido}-3-hydroxy-2-methylpropanamide] was < 1000 nM.

Consider `Cc1oc2ccc(OCC3(C(F)F)CC3)cc2c1C(=O)N[C@H](C(N)=O)[C@@H](C)O` [Cpd 011, (2S,3R)-2-[(5-{[1-(difluoromethyl)cyclopropyl]methoxy}-2-methyl-1-benzofuran-3-yl)formamido]-3-hydroxybutanamide], for which, in test [2], the IC50 is < 1000 nM. On the same count and under the same terms, the value for `Cc1oc2ccc(OCC3(C(F)F)CC3)cc2c1C(=O)NC(C)(CO)C(N)=O` (single isomer, unassigned) [Cpd 014 - En2, 2-[(5-{[1-(difluoromethyl)cyclopropyl]methoxy}-2-methyl-1-benzofuran-3-yl)formamido]-3-hydroxy-2-methylpropanamide] was < 1000 nM; that for `Cc1oc2ccc(OCC3(C(F)F)CC3)cc2c1C(=O)NC1(C(N)=O)CCOC1` (single isomer, unassigned) [Cpd 036 - En2, N-(3-carbamoyloxolan-3-yl)-5-{[1-(difluoromethyl)cyclopropyl]methoxy}-2-methyl-1-benzofuran-3-carboxamide] was < 1000 nM; that for `Cc1oc2ccc(OC[C@H]3C[C@@H]4C[C@@H]4C3)cc2c1C(=O)NC(C)(CO)C(N)=O` (single isomer, unassigned) [Cpd 051 - En2, Trans-2-{[5-({bicyclo[3.1.0]hexan-3-yl}methoxy)-2-methyl-1-benzofuran-3-yl]formamido}-3-hydroxy-2-methylpropanamide] was < 1000 nM. Turning to `Cc1oc2ccc(OCC3CC3)cc2c1C(=O)NC1CCNCC1(F)F` (single isomer, unassigned) [Cpd 024-En2, 5-(cyclopropylmethoxy)-N-(3,3-difluoropiperidin-4-yl)-2-methyl-1-benzofuran-3-carboxamide], the half-maximal inhibitory concentration (IC50) in test [2] is < 1000 nM. Regarding `Cc1oc2ccc(OCC(F)(F)F)cc2c1C(=O)NC(C)(CO)C(N)=O` (single isomer, unassigned) [Cpd 047 - En2, 3-hydroxy-2-methyl-2-{[2-methyl-5-(2,2,2-trifluoroethoxy)-1-benzofuran-3-yl]formamido}propanamide], the IC50 in test [2] was < 1000 nM.

Consider `Cc1oc2ccc(OCC3(C(F)(F)F)CC3)cc2c1C(=O)NC1(C)CCCNC1=O` (single isomer, unassigned) [Cpd 061 - En2, 2-methyl-N-(3-methyl-2-oxopiperidin-3-yl)-5-{[1-(trifluoromethyl)cyclopropyl]methoxy}-1-benzofuran-3-carboxamide], for which the IC50 in test [2] fell in the range of 1000 to 20000 nM. For `Cc1oc2ccc(OCC3CCCC3(F)F)cc2c1C(=O)NC(CO)C(N)=O` (stereo not shown) [Cpd 013, 2-({5-[(2,2-difluorocyclopentyl)methoxy]-2-methyl-1-benzofuran-3-yl}formamido)-3-hydroxypropanamide], the IC50 in test [2] is < 1000 nM. On to `Cc1oc2ccc(OCC3CC3)cc2c1C(=O)NC(C)(CO)CC(F)F` (single isomer, unassigned) [Cpd 046 - En1, 5-(cyclopropylmethoxy)-N-(4,4-difluoro-1-hydroxy-2-methylbutan-2-yl)-2-methyl-1-benzofuran-3-carboxamide], for which, in test [2], the IC50 was < 1000 nM. On the same count and under the same terms, the value for `Cc1oc2ccc(OCC3CCCCC3)cc2c1C(=O)NC1CCN(C)CC1` [Cpd 020, 5-(cyclohexylmethoxy)-2-methyl-N-(1-methylpiperidin-4-yl)-1-benzofuran-3-carboxamide] was > 20000 nM; that for `NC(=O)[C@H](CO)NC(=O)c1c(C2CC2)oc2ccc(OCC3CC3)cc12` [Cpd 004, (2S)-2-{[2-cyclopropyl-5-(cyclopropylmethoxy)-1-benzofuran-3-yl]formamido}-3-hydroxypropanamide] was < 1000 nM; that for `Cc1oc2ccc(OCC3CC3)cc2c1C(=O)NC1(CO)CCOCC1` [Cpd 030, 5-(cyclopropylmethoxy)-N-[4-(hydroxymethyl)oxan-4-yl]-2-methyl-1-benzofuran-3-carboxamide] was < 1000 nM. On the same count and under the same terms, under `Cc1oc2ccc(OCC3CC3(F)F)cc2c1C(=O)NC1CCNCC1(F)F` (single isomer, unassigned) [Cpd 031 - En4, 5-[(2,2-difluorocyclopropyl)methoxy]-N-(3,3-difluoropiperidin-4-yl)-2-methyl-1-benzofuran-3-carboxamide] stands < 1000 nM; under `Cc1oc2ccc(OCC3CC3)cc2c1C(=O)NC(C)(CO)CC(F)F` (single isomer, unassigned) [Cpd 046 - En2, 5-(cyclopropylmethoxy)-N-(4,4-difluoro-1-hydroxy-2-methylbutan-2-yl)-2-methyl-1-benzofuran-3-carboxamide], < 1000 nM; under `Cc1oc2ccc(OCC3CC3(C)C)cc2c1C(=O)NC(C)(CO)C(N)=O` (single isomer, unassigned) [Cpd 049 - En2, 2-({5-[(2,2-dimethylcyclopropyl)methoxy]-2-methyl-1-benzofuran-3-yl}formamido)-3-hydroxy-2-methylpropanamide], < 1000 nM.

By IC50 is commonly meant the concentration at which inhibition is half-maximal. The low end stands for inhibition by little substance, the high end for a need for much substance.
